Results reported in patent US12239132B2, “Compounds and methods for increasing soil nutrient availability” (SOUND AGRICULTURE COMPANY, priority 2018, dated 2025).
Entries after “also recorded” stand apart in the source; their conditions may differ.

Tests used:
tomato = experiment: Field trials in tomato; assay type: in vivo
Excerpt: Field trials show both increasing yield and larger, higher quality fruits. Tomato yields were increased by up to 40% in California field trials.

corn = experiment: Corn field trials in Iowa, nitrogen deficiency; assay type: in vivo
Excerpt: In some instances, disclosed herein is a field trial of AB09 application to corn plants.
In some instances, disclosed herein is an aerial photograph description of a large scale strip field trial of corn plants applied with a compound, formulation, method, container, or kit disclosed herein, for example AB09. […] Greener (less yellow) coloring is indicative of healthier plants.
AB09 was applied to Buckingham, Iowa corn plots at the start of the season. In some instances, disclosed herein is a photo of corn at stage R3, with a treated plot on the right, and an untreated plot […]. Leaf firing (yellowing on the lower leaves) is apparent on the untreated plot, where AB09 plants are greener. In some instances, disclosed herein is an aerial image of treated and untreated plots at tasseling. […] Nitrogen content was quantified using a standard tissue sampling test to measure percent nitrogen content in leaf tissue samples.

innate soil microbes = experiment: Phosphate solubilization in commercial potting soil, sterile vs non-sterile; assay type: cell-based; conditions: 12 days
Experimental: In some aspects, a compound disclosed herein, e.g., AB09, stimulates phosphate solubilization of innate soil microbes. The induced phosphate solubilization enhancement was tested for in plant-free soil, which contains an innate diverse microflora of bacteria and fungi. Soil was evenly distributed into pots, half of which were pressure-sterilized in an autoclave. Half of the sterile and half of the non-sterile soil received a treatment. Control pots received a mock treatment. Pots were covered, incubated at room temperature, and orthophosphate levels were measured after twelve days. […] Three replicates of 20 mg air dried soil were measured from each pot and placed into 1.5 mL eppendorf tubes. […] In some instances, disclosed herein are measured phosphate levels at 12 days post treatment. […]
The effect of AB09 on a soil microbiome's innate ability to solubilize phosphorus was tested using commercially available soil, which contains a diverse microflora of bacteria. […] After 12 days of incubation soil phosphorus was extracted using the Bray-1P method and quantified using the malachite green assay.
Phosphate levels at 12 days post treatment. […] Orthophosphate was measured using the malachite-green phosphate method.
Orthophosphate was measured using the malachite-green phosphate method (BioAssay Systems Malachite Green Phosphate Assay Kit Catalog No: POMG-25H). […] Data are quantified on a plate reader at 620 nm. […]

CC1=CC(Oc2c(C)occc2=O)OC1=O (centres unmarked) [AB09, maltol lactone]
increase of tomato yields (tomato; California field trials): up to 40% | tomato fruit size and number (tomato; treated plants): larger and more numerous fruits | leaf firing (yellowing of the lower leaves) of corn (corn; Buckingham, Iowa corn plots, stage R3, vs untreated plot): greener; also recorded: reduced leaf firing | nitrogen content in corn leaf tissue samples (corn; compared to a control sample): higher leaf nitrogen content | yellowing of corn plants at de-tassling (corn; large scale strip field trial, aerial photograph, vs control plants): reduced yellowing | NDVI of plots at tasseling (aerial image) (corn; treated strip vs untreated plot): higher NDVI values | level of orthophosphate in non-sterile soil (innate soil microbes; 24 ug/mL in 1% DMSO, 25 mL per pot, Bray-P1 extraction, vs non-sterile control): significantly increased | AB09-induced phosphorus enhancement in sterile soil (innate soil microbes; autoclaved soil, 24 ug/mL): not observed
